# Test results: PubChem BioAssay AID812 (SRMLSC, 2007)
# Calls of active or inactive are those of the source. No rule for the calls is given here.
# Tested on: Saccharomyces cerevisiae lifespan extension, no nicotinamide
# Assay: yeast lifespan extension without nicotinamide, confirmation, yeast lifespan extension project, S. cerevisiae (AID 812);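 also: growth read as optical density after 42 hours of incubation at 30C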
row,Compound,EC50
1,Cc1cc(C)c(NC(=O)/C(=C/c2ccccc2)c2ccccc2)c(C)c1,> 40 µM (inactive)
2,C/C(=N\NC(=O)c1ccccc1O)C1C(=O)c2ccccc2C1=O,> 40 µM (inactive)
3,COn1c(SC2CCCCC2)nc2ccccc2c1=O,> 40 µM (inactive)
4,COc1ccc(C2CC23N=C(c2ccccc2)OC3=O)cc1 (centres undefined),> 40 µM (inactive)
5,O=C(NCc1ccc(Cl)cc1)c1ccccc1CCc1ccccc1,> 40 µM (inactive)
6,COc1ccc(C(=O)C(CN2CCOCC2)c2ccccc2)cc1F (centres undefined),> 40 µM (inactive)
7,Cc1ccc(C)c(N2CCN(S(=O)(=O)c3c(C)noc3/C=C/N(C)C)CC2)c1,> 40 µM (inactive)
8,Cc1c(O)c(S(=O)c2ccccc2)c(=O)n(-c2ccccc2)c1-c1ccccc1 (centres undefined),> 40 µM (inactive)
9,O=S(=O)(Nc1nc2ccccc2nc1Cl)c1ccc2ccccc2c1,> 40 µM (inactive)
10,O=c1c(-c2ccc(Cl)cc2)[n+]([O-])c2ccccc2n1OCc1ccccn1,> 40 µM (inactive)
11,O=C(COc1ccc([N+](=O)[O-])cc1)N(Cc1ccccc1)Cc1ccccc1,> 40 µM (inactive)
12,CCCc1[nH]nc2c1C(c1ccc(Br)s1)C(C#N)=C(N)O2 (centres undefined),> 40 µM (inactive)
13,O=C(/C=C/c1ccccc1)Nc1ncn[nH]1,> 40 µM (inactive)
14,ClC(Cl)(c1nnnn1-c1ccccc1)c1nnnn1-c1ccccc1,> 40 µM (inactive)
15,CC(=C1C(=O)c2ccccc2C1=O)N1CCN(C/C=C/c2ccccc2)CC1,> 40 µM (inactive)
16,CC1CC(C)CN(S(=O)(=O)c2cccc(C(=O)N3C(=O)c4cccc(N)c4C3=O)c2)C1 (centres undefined),> 40 µM (inactive)
17,CCc1[nH]nc2c1C(c1ccc(Br)s1)C(C#N)=C(N)O2 (centres undefined),> 40 µM (inactive)
18,CCCCC(CC)Cn1c2nc3ccccc3nc2c2c(=N)oc(C)nc21 (centres undefined),> 40 µM (inactive)
19,O=c1c2c3c(sc2ncn1/N=C/c1ccc([N+](=O)[O-])o1)CCCC3,> 40 µM (inactive)
20,O=C(CS(=O)c1ccc(C(F)(F)F)cc1[N+](=O)[O-])Oc1ccccc1 (centres undefined),> 40 µM (inactive)
21,COC(=O)CCS(=O)(=O)c1nc(-c2ccccc2)cc(C(F)(F)F)n1,> 40 µM (inactive)
22,Cc1cccc(N2C(=O)C(Oc3ccc(Cl)cc3Cl)C2C=O)c1C (centres undefined),> 40 µM (inactive)
23,CC(c1ccco1)N(C(=O)c1ccccc1NS(=O)(=O)c1cc([N+](=O)[O-])ccc1Cl)c1ccccn1 (centres undefined),> 40 µM (inactive)
24,CCCCn1c(NS(=O)(=O)c2ccc(C)cc2)c(C(=O)OCC)c2nc3ccccc3nc21,> 40 µM (inactive)
25,CCCn1c(SCC(=O)c2ccc3c(c2)NC(=O)CO3)nc2ccccc21,> 40 µM (inactive)

row,Compound,EC50
1,COc1ccc(-c2cc(C(F)(F)F)nc(S(C)(=O)=O)n2)cc1OC,> 40 µM (inactive)
2,COc1ccc2c(=O)c3c(=O)n(Cc4ccco4)c(-c4ccc(C)cc4)nc3oc2c1,> 40 µM (inactive)
3,Cc1cc(C)nc(SCc2cc(=O)c(OC(=O)c3ccc(Br)o3)co2)n1,> 40 µM (inactive)
4,O=c1c2ccccc2sn1-c1ccccc1,> 40 µM (inactive)
5,COCCOC(=O)/C(=C/c1ccc(OC(=O)c2ccccc2)cc1)C(C)=O,> 40 µM (inactive)
6,c1cncc(-c2nn[nH]n2)c1,> 40 µM (inactive)
7,C/C(=N\NC(=O)c1cccc(Cl)c1)C1C(=O)c2ccccc2C1=O,> 40 µM (inactive)
8,Cc1ccc(S(=O)(=O)C(C#N)c2nc3ccccc3nc2N2CCCC2)cc1 (centres undefined),> 40 µM (inactive)
9,CCn1c(/C=N/c2nc3ccccc3n2C)nc2ccccc21,> 40 µM (inactive)
10,O=Cc1cccn1-c1sc2c(c1C(=O)O)CCCC2,> 40 µM (inactive)
11,CC(C)C(c1nnnn1Cc1ccccc1)N1CCN(Cc2ccc3c(c2)OCO3)CC1 (centres undefined),> 40 µM (inactive)
12,Cc1cc(N=Cc2c(O)ccc3ccccc23)no1,> 40 µM (inactive)
13,O=c1cc(O)c2c(=O)n(-c3ccccc3)c3c(c2o1)CCCCCC3,> 40 µM (inactive)
14,N=c1c2c(-c3ccccc3)c(-c3ccccc3)n(Cc3ccco3)c2ncn1CCCn1ccnc1,> 40 µM (inactive)
15,CC(=Nc1ccc2c(c1)nc(CO)n2C)C1=C(O)CC(C)(C)CC1=O,> 40 µM (inactive)
16,CS(=O)(=O)Oc1ccc(Br)cc1/C=C1/N=C(c2ccco2)OC1=O,> 40 µM (inactive)
17,Cc1cccc(N2C(=O)/C(=C\c3ccc(OC(F)F)cc3)c3ccccc3C2=O)c1,> 40 µM (inactive)
18,CN(C)c1ccc(S(=O)(=O)c2ccc(Cl)cc2)cc1,> 40 µM (inactive)
19,CCOc1ccc(N=Cc2c(O)c3ccccc3oc2=O)cc1,> 40 µM (inactive)
20,Cc1ccc(/C=C2/C(=O)NC(=O)N(CCc3ccc(F)cc3)C2=O)o1,> 40 µM (inactive)
21,CCCC(=O)C1C(=O)CC(CC(C)SCC)CC1=O (centres undefined),> 40 µM (inactive)
22,O=C(NCC1CCCO1)c1c(O)c2ccccc2[nH]c1=O (centres undefined),> 40 µM (inactive)
23,CCOC(=O)C1=C(C)Nc2nc(=S)[nH]n2C1c1ccc(Cl)cc1 (centres undefined),> 40 µM (inactive)
24,CCCCCn1c(=O)c(C(=O)NCc2ccccn2)c(O)c2ccccc21,> 40 µM (inactive)
25,CC(=O)Oc1ccccc1N1C(=O)c2ccc(C(=O)O)cc2C1=O,> 40 µM (inactive)

row,Compound,EC50
1,COc1ccc(OC)c(NC(=S)N2CCN(C/C=C/c3ccccc3)CC2)c1,> 40 µM (inactive)
2,CC(C)(C)C1CCc2[nH]nc(C(=O)O)c2C1 (centres undefined),> 40 µM (inactive)
3,Cc1cc(NS(=O)(=O)c2ccc(CC(C)C)cc2)no1,> 40 µM (inactive)
4,CC(=O)C(C(C)=O)c1c(Cl)c(O)c(O)c2c(C(=O)c3ccccc3)coc12,> 40 µM (inactive)
5,CN(C)/C=C(/C(=O)c1ccc(Cl)cc1Cl)S(=O)(=O)c1ccccc1,> 40 µM (inactive)
6,CCOC(=O)c1nnn(-c2nonc2N)c1CN1CCc2ccccc2C1,> 40 µM (inactive)
7,O=C(Nc1nccs1)c1ccc2c(=O)n3c(nc2c1)CCCCC3,> 40 µM (inactive)
8,CC(=O)Nc1ccc(C(=O)CSc2nnc(-c3ccc(O)cc3)n2CC2CCCO2)cc1 (centres undefined),> 40 µM (inactive)
9,O=C(NC(=S)NNC(=O)c1ccc(Cl)cc1Cl)c1cccnc1,> 40 µM (inactive)
10,O=S(=O)(CCSc1ccccn1)c1nc2ccccc2s1,> 40 µM (inactive)
11,O=C(CCl)c1ccc(Cc2ncc(C(F)(F)F)cc2Cl)s1,> 40 µM (inactive)
12,O=[N+]([O-])c1c(C(Cl)Cl)nn(-c2ccccc2)c1N1CCCC1,> 40 µM (inactive)
13,Cc1ccc(C(=O)c2no[n+]([O-])c2C(=O)c2ccc(C)cc2)cc1,> 40 µM (inactive)
14,CC1(C)CC(=O)C(C(=O)Cc2ccccc2[N+](=O)[O-])C(=O)C1,> 40 µM (inactive)
15,CCOC(=O)/C(=C/c1ccc(OC(=O)c2ccccc2)cc1)C(C)=O,> 40 µM (inactive)
16,CCCCN(CCCC)c1ccc(C(=O)c2ccccc2C(=O)O)c(O)c1,> 40 µM (inactive)
17,COc1cccc(/C=C/C(=O)c2c(O)cc(C)oc2=O)c1O,> 40 µM (inactive)
18,Nn1c(-c2ccccn2)nnc1-c1ccccn1,> 40 µM (inactive)
19,CCCCC(=O)Nc1ccc(C(=O)NNC(=S)NC(=O)c2cccs2)cc1,> 40 µM (inactive)
20,CN(C)C1(c2nnnn2CCOC(=O)Nc2ccc(Cl)cc2)CCCCC1,> 40 µM (inactive)
21,CS(=O)(=O)c1nc(-c2ccccc2)cc(C(F)(F)F)n1,> 40 µM (inactive)
22,O=C(/C=C(\O)c1ccc(Cl)cc1)C(=O)NNC(=O)C(O)(c1ccccc1)c1ccccc1,> 40 µM (inactive)
23,Cc1nc2ccccc2n1-c1ccccc1,> 40 µM (inactive)
24,CCc1nc(SCC(=O)c2ccc3c(c2)OCCO3)c2ccccc2n1,19.1 µM
25,CCc1ccc(CC2S/C(=C(\C#N)C(C)=O)NC2=O)cc1 (centres undefined),> 40 µM (inactive)

row,Compound,EC50
1,CNC(=O)/C(C#N)=C/c1c(F)cccc1Cl,> 40 µM (inactive)
2,C=C(C(=O)c1ccccc1)C(C)C(=C)C(=O)c1ccccc1,> 40 µM (inactive)
3,COc1ccc(/C=C(/C(=O)c2ccc(Cl)cc2Cl)n2cncn2)cc1,> 40 µM (inactive)
4,COc1cccc(/C=C2\C(=O)N(c3cccc(C)c3)C(=O)c3ccccc32)c1,> 40 µM (inactive)
5,CCOc1cc(/C=C\[N+](=O)[O-])ccc1OCC(=O)Nc1ccccc1C,> 40 µM (inactive)
6,Cc1nn(C(C)(C)C)c(OC(=O)c2ccc(Br)o2)c1Sc1ccccc1,> 40 µM (inactive)
7,COC(=O)C1=C(C(=O)OC)C(c2cc(Br)ccc2O)c2sc(=O)[nH]c2S1 (centres undefined),> 40 µM (inactive)
8,CC1CCCCC1NC(=O)/C(C#N)=C/c1ccccc1F (centres undefined),> 40 µM (inactive)
9,CCCc1nc2c(c(=O)c3ccccc3n2C)c(=O)n1C1CCCCCC1,> 40 µM (inactive)
10,COc1cc(Br)cc(-c2nc3c(c(=O)[nH]c(=O)n3Cc3ccccc3)n2C)c1O,> 40 µM (inactive)
11,COc1ccc2c3c(cccc13)C(=O)N(O)C2=O,> 40 µM (inactive)
12,O=Cc1cc2ccccc2nc1SCc1ccc(Cl)cc1,> 40 µM (inactive)
13,COc1cc(C(C[N+](=O)[O-])c2c(-c3ccccc3)cc3ccccn23)cc(OC)c1OC (centres undefined),> 40 µM (inactive)
14,Cc1oc2c(c(=O)c1C)C(=O)CC(c1ccccc1)C2 (centres undefined),> 40 µM (inactive)
15,CCOc1ccccc1/C=c1\sc2ncnn2c1=O,> 40 µM (inactive)
16,O=C(NC(=S)NNS(=O)(=O)c1ccccc1)c1ccc([N+](=O)[O-])cc1,> 40 µM (inactive)
17,Cc1ccc(N/C(C(Cl)=C(Cl)Cl)=C(/Cl)[N+](=O)[O-])c(C)c1,> 40 µM (inactive)
18,O=c1cc(-c2ccccc2Cl)oc2ccc([N+](=O)[O-])c(O)c12,> 40 µM (inactive)
19,O=c1cc(O)c2c(=O)n(-c3ccccc3)c3c(c2o1)CCCCC3,> 40 µM (inactive)
20,CC1=C(C#N)C2C(/C1=N/O)C2(C)C (centres undefined),> 40 µM (inactive)
21,COc1cc(OC)cc(-c2nc3ccccc3c(=O)n2OC(=O)c2ccc(C)c(C)c2)c1,> 40 µM (inactive)
22,CCc1nnc(N2C(=O)c3ccc(Oc4ccc([N+](=O)[O-])cc4)cc3C2=O)s1,> 40 µM (inactive)
23,CCc1nnc(NC(=O)c2cccc(S(=O)(=O)N(C)c3ccccc3)c2)s1,> 40 µM (inactive)
24,Cc1ncc(C23CC4CC(CC(C4)C2)C3)[nH]1,> 40 µM (inactive)
